Here are results for 20 compounds from patent US20240092761A1, “QUINAZOLINE COMPOUNDS AND METHODS OF USE” (IAMBIC THERAPEUTICS, INC., priority 2022, published 2024).

Holding throughout (type): biochemical
One assay addresses CDK1/Cyclin B1 (Homo sapiens (Human), UniProt P06493). As to the kind of experiment: CDK1/Cyclin B1 ADP-Glo Kinase Assay. Conditions: 80 uM ATP. In a few lines:
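CDK1/cyclin B1 (4.917 nM) preincubated 30 min with inhibitor (2% DMSO), then 80 µM ATP (Km 78.6 µM) and 0.75 µM substrate added; 90 min, room temperature, pH 7.5. ADP measured by ADP-Glo luminescence; IC50 from 4-parameter fit.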

Assay [1] deals with CDK2/Cyclin E1 full length (Homo sapiens (Human), UniProt P24941). As to the kind of experiment: CDK2/Cyclin E1 Full Length ADP-Glo Kinase Assay. Conditions: 20 uM ATP, read-out: CDK2/ CyclinE1 IC50. Put shortly:
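Full-length human CDK2/Cyclin E1 (0.328 nM) pre-incubated 30 min with inhibitor at RT, then reacted 90 min at RT with 20 uM ATP (Km 64.78 uM) and 0.75 uM substrate in pH 7.5 HEPES, 2% DMSO. ADP measured by ADP-Glo luminescence; IC50 from 4-parameter fit of fractional velocity.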

The target in a further assay is CDK4/Cyclin D1 (Homo sapiens (Human), UniProt P11802). As to the kind of experiment: CDK4/Cyclin D1 Mobility Shift Assay (MSA). The following applies: 0.2 mM ATP, read-out: CDK4/ CyclinD1 MSA IC50. The source says:
CDK4/Cyclin D1 Mobility Shift Assay (MSA)
The purpose CDK4/Cyclin D1 assay is to evaluate the inhibition (% inhibition and IC50 values) in the presence of small molecule inhibitors by using a fluorescence based microfluidic mobility shift assay. CDK4/Cyclin D1 catalyzes the production of ADP from ATP that accompanies the phosphoryl transfer to the substrate peptide 5-FAM-Dyrktide (5-FAM-RRRFRPASPLRGPPK) (Perkin Elmer Peptide 34). The mobility shift assay (MSA) electrophoretically separates the fluorescently labelled peptides (substrate and phosphorylated product) following the kinase reaction. Both substrate and product are measured, and the ratio of these values is used to generate % conversion of substrate to product by the LabChip EZ Reader. Typical reaction solutions contained 2% DMSO (+/−inhibitor), 10 mM MgCl2, 1 mM EGTA, 0.05% BSA, 2 mM DTT, 0.2 mM ATP, 0.01% Brig-35, 1.5 uM 5-FAM-Dyrktide, 2.5 nM CDK4/Cyclin D1 in 50 mM HEPES buffer at pH 7.5. The reaction was initiated with the addition of substrate solution, following a 30-minute pre-incubation of enzyme and inhibitor at 22° C. in the reaction mix. The reaction was stopped after 180 minutes by the addition of 75 uL of 500 mM EDTA and measured on a Perkin Elmer EZ reader instrument. IC50 determinations were made from a plot of the fractional velocity as a function of inhibitor concentration fit to the 4 parameters IC50 equation.

The target in another assay is CDK6/Cyclin D3 (Homo sapiens (Human), UniProt Q00534). As to the kind of experiment: CDK6/Cyclin D3 ADP-Glo Kinase Assay. The following applies: 100 uM ATP, read-out: CDK6/ CyclinD3 IC50. Put shortly: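 Recombinant human CDK6/Cyclin D3 pre-incubated 30 min with inhibitor at room temperature, then reaction started with ATP/substrate and run 90 min at room temperature. ADP formed detected by ADP-Glo luminescence; IC50 from a 4-parameter fit of fractional velocity versus inhibitor concentration.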
Sequence of CDK6/Cyclin D3 (Q00534 whole entry): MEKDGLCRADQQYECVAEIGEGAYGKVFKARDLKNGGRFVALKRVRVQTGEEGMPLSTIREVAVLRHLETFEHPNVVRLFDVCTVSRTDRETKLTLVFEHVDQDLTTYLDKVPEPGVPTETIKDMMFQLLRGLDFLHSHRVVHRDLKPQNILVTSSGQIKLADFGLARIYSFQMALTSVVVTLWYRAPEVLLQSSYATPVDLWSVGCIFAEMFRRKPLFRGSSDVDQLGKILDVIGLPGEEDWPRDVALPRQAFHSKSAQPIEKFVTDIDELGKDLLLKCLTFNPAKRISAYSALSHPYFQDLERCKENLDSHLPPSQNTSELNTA
Sequence of CDK6/Cyclin D3 (P30281 whole entry partner): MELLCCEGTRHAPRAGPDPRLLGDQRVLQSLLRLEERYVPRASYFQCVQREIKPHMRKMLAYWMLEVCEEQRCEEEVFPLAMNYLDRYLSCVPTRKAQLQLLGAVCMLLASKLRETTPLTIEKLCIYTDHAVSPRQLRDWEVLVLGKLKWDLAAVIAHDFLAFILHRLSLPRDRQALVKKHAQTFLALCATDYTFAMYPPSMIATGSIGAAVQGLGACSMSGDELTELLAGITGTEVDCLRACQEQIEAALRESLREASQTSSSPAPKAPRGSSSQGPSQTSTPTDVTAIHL

Sequence of CDK4/Cyclin D1 (P11802 whole entry): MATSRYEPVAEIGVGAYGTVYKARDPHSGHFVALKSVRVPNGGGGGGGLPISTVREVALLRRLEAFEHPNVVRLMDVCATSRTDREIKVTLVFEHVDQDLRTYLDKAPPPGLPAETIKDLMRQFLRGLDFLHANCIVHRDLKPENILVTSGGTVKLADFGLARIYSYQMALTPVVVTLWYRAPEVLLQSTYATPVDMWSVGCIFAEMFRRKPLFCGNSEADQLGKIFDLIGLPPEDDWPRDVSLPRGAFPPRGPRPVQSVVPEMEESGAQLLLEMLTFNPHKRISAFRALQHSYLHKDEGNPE
Sequence of CDK4/Cyclin D1 (P24385 whole entry partner): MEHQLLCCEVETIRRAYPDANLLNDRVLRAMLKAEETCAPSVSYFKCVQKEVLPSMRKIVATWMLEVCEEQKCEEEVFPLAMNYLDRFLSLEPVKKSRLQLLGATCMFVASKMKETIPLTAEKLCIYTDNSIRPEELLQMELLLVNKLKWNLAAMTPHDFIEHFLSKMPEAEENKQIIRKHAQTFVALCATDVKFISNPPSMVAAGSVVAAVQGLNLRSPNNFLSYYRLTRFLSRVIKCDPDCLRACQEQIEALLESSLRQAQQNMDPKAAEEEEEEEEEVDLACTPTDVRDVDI
Sequence of CDK1/Cyclin B1 (P06493 whole entry): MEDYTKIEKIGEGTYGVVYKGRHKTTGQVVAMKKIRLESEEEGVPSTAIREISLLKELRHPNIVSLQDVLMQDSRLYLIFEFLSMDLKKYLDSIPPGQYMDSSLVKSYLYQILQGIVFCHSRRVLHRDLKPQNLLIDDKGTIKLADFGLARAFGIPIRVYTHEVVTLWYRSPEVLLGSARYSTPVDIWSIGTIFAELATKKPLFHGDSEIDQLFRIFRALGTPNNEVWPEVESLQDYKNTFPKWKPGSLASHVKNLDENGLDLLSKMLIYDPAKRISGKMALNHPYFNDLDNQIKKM
Sequence of CDK1/Cyclin B1 (P14635 whole entry partner): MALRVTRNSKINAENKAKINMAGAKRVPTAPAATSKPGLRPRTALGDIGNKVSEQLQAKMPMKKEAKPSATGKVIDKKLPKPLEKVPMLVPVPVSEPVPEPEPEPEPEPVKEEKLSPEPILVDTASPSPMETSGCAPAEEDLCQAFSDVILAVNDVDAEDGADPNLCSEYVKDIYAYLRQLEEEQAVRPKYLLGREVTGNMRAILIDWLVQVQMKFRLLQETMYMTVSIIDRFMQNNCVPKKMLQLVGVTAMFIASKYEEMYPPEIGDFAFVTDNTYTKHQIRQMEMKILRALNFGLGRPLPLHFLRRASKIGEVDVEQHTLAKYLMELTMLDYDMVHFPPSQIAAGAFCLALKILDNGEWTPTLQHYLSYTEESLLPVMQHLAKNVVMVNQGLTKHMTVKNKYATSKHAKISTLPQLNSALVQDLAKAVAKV

For `CCN1CC2(C1)CN(c1ccc(Nc3ncc4cccc(N5CC6(C5)CC(F)(F)C6)c4n3)nc1)C2` [Example 49, 8-(6,6-difluoro-2-azaspiro[3.3]heptan-2-yl)-N-(5-(6-ethyl-2,6-diazaspiro[3.3]heptan-2-yl)pyridin-2-yl)quinazolin-2-amine], the IC50 against CDK1/Cyclin B1 is greater than 2000 nM; in assay [1], greater than 2000 nM; at CDK4/Cyclin D1, less than 200 nM; on CDK6/Cyclin D3, 200 to 500 nM.
Turning to `CS(=O)(=O)N1CCC(Nc2ncc3cccc(N4CCOC5(CC5)C4)c3n2)CC1` [Example 9, N-(1-(methylsulfonyl)piperidin-4-yl)-8-(4-oxa-7-azaspiro[2.5]octan-7-yl)quinazolin-2-amine], the IC50 is greater than 2000 nM against CDK1/Cyclin B1, 200 to 500 nM in assay [1], 500 to 2000 nM on CDK4/Cyclin D1 and 200 to 500 nM on CDK6/Cyclin D3.
As for `CS(=O)(=O)N1CCC(Nc2ncc3cccc(N4CCN(C5CC5)CC4)c3n2)CC1` [Example 13, 8-(4-cyclopropylpiperazin-1-yl)-N-(1-(methylsulfonyl)piperidin-4-yl)quinazolin-2-amine], the IC50 is greater than 2000 nM against CDK1/Cyclin B1, less than 200 nM in assay [1], 200 to 500 nM at CDK4/Cyclin D1 and 500 to 2000 nM on CDK6/Cyclin D3.
Consider `CS(=O)(=O)N1CCC(Nc2ncc3cccc(N4CCC5(CCN(S(C)(=O)=O)C5)C4)c3n2)CC1` (centres unmarked) [Example 23, 8-(7-(methylsulfonyl)-2,7-diazaspiro[4.4]nonan-2-yl)-N-(1-(methylsulfonyl)piperidin-4-yl)quinazolin-2-amine], for which the IC50 on CDK1/Cyclin B1 is greater than 2000 nM; in assay [1] it was less than 200 nM; on CDK4/Cyclin D1, less than 200 nM; on CDK6/Cyclin D3 it was less than 200 nM.
In the case of `CS(=O)(=O)N1CCC(Nc2ncc3cccc(N4CCN(S(C)(=O)=O)CC4)c3n2)CC1` [Example 12, 8-(4-(methylsulfonyl)piperazin-1-yl)-N-(1-(methylsulfonyl)piperidin-4-yl)quinazolin-2-amine], the IC50 is greater than 2000 nM at CDK1/Cyclin B1, 200 to 500 nM in assay [1], 200 to 500 nM on CDK4/Cyclin D1 and 500 to 2000 nM on CDK6/Cyclin D3.
As for `CC(=O)N1CCC2(CC1)CCN(c1cccc3cnc(NC4CCN(S(C)(=O)=O)CC4)nc13)C2` [Example 25, 1-(2-(2-((1-(methylsulfonyl)piperidin-4-yl)amino)quinazolin-8-yl)-2,8-diazaspiro[4.5]decan-8-yl)ethan-1-one], the IC50 on CDK1/Cyclin B1 is greater than 2000 nM; in assay [1], less than 200 nM; on CDK4/Cyclin D1 it was less than 200 nM; on CDK6/Cyclin D3, 200 to 500 nM.
Take `CS(=O)(=O)N1CCC(Nc2ncc3cccc(N4CCC5(CCC(F)(F)C5)C4)c3n2)CC1` (centres unmarked) [Example 34, 8-(7,7-difluoro-2-azaspiro[4.4]nonan-2-yl)-N-(1-(methylsulfonyl)piperidin-4-yl)quinazolin-2-amine]: the IC50 was 500 to 2000 nM against CDK1/Cyclin B1, less than 200 nM in assay [1], less than 200 nM at CDK4/Cyclin D1 and 200 to 500 nM at CDK6/Cyclin D3.
Turning to `CS(=O)(=O)N1CCC(Nc2ncc3cccc(N4CC5CC(C4)O5)c3n2)CC1` [Example 30, 8-(6-oxa-3-azabicyclo[3.1.1]heptan-3-yl)-N-(1-(methylsulfonyl)piperidin-4-yl)quinazolin-2-amine], the IC50 on CDK1/Cyclin B1 was 500 to 2000 nM; in assay [1], less than 200 nM; at CDK4/Cyclin D1, less than 200 nM; at CDK6/Cyclin D3, 200 to 500 nM.
As for `CS(=O)(=O)N1CCC(Nc2ncc3cccc(N4CCN(C5COC5)CC4)c3n2)CC1` [Example 11, N-(1-(methylsulfonyl)piperidin-4-yl)-8-(4-(oxetan-3-yl)piperazin-1-yl)quinazolin-2-amine], the IC50 at CDK1/Cyclin B1 is greater than 2000 nM; in assay [1], 500 to 2000 nM; at CDK4/Cyclin D1 it was 500 to 2000 nM; at CDK6/Cyclin D3 it was greater than 2000 nM.
As to `CS(=O)(=O)N1CCC(Nc2ncc3cccc(N4CCCC5(CCOC5)C4)c3n2)CC1` (centres unmarked) [Example 7, N-(1-(methylsulfonyl)piperidin-4-yl)-8-(2-oxa-7-azaspiro[4.5]decan-7-yl)quinazolin-2-amine], the IC50 is greater than 2000 nM against CDK1/Cyclin B1, less than 200 nM in assay [1], 200 to 500 nM on CDK4/Cyclin D1 and 500 to 2000 nM on CDK6/Cyclin D3.
For `CS(=O)(=O)N1CCC(Nc2ncc3cccc(N4CCN(CC5CC5)CC4)c3n2)CC1` [Example 17, 8-(4-(cyclopropylmethyl)piperazin-1-yl)-N-(1-(methylsulfonyl)piperidin-4-yl)quinazolin-2-amine] the same measures were greater than 2000 nM, less than 200 nM, 200 to 500 nM and 500 to 2000 nM.
For `CS(=O)(=O)N1CCC(Nc2ncc3cccc(N4CCC5(COC5)C4)c3n2)CC1` [Example 22, N-(1-(methylsulfonyl)piperidin-4-yl)-8-(2-oxa-6-azaspiro[3.4]octan-6-yl)quinazolin-2-amine] the same measures were 500 to 2000 nM, less than 200 nM, less than 200 nM and less than 200 nM.
For `CC1(C)CC2(CN(c3cccc4cnc(NC5CCN(S(C)(=O)=O)CC5)nc34)C2)C1` [Example 21, 8-(6,6-dimethyl-2-azaspiro[3.3]heptan-2-yl)-N-(1-(methylsulfonyl)piperidin-4-yl)quinazolin-2-amine], the IC50 is greater than 2000 nM at CDK1/Cyclin B1, 200 to 500 nM in assay [1], 200 to 500 nM on CDK4/Cyclin D1 and greater than 2000 nM at CDK6/Cyclin D3.
Regarding `CS(=O)(=O)N1CCC(Nc2ncc3cccc(N4CC5(CCOCC5)C4C4CC4)c3n2)CC1` (centres unmarked) [Example 16, 8-(1-cyclopropyl-7-oxa-2-azaspiro[3.5]nonan-2-yl)-N-(1-(methylsulfonyl)piperidin-4-yl)quinazolin-2-amine], the IC50 is greater than 2000 nM against CDK1/Cyclin B1, less than 200 nM in assay [1], 500 to 2000 nM on CDK4/Cyclin D1 and greater than 2000 nM at CDK6/Cyclin D3.
Take `CCN(CC)C1CCN(c2cccc3cnc(NC4CCN(S(C)(=O)=O)CC4)nc23)CC1` [Example 20, 8-(4-(diethylamino)piperidin-1-yl)-N-(1-(methylsulfonyl)piperidin-4-yl)quinazolin-2-amine]: the IC50 against CDK1/Cyclin B1 was greater than 2000 nM; in assay [1], less than 200 nM; at CDK4/Cyclin D1, 200 to 500 nM; on CDK6/Cyclin D3, 500 to 2000 nM.
Taken in the same sequence, the figures for `CS(=O)(=O)N1CCC(Nc2ncc3cccc(N4CCCC4)c3n2)CC1` [Example 2, N-(1-(methylsulfonyl)piperidin-4-yl)-8-(pyrrolidin-1-yl)quinazolin-2-amine] were 500 to 2000 nM, less than 200 nM, less than 200 nM and less than 200 nM.
“N-(1-(methyl sulfonyl) piperidin-4-yl)-8-(2,6-diazaspiro[3.4]octan-2-yl) quinazolin-2-amine [Example 32]”: the IC50 is greater than 2000 nM against CDK1/Cyclin B1, less than 200 nM in assay [1], 200 to 500 nM on CDK4/Cyclin D1 and 500 to 2000 nM at CDK6/Cyclin D3.
Taken in the same sequence, the figures for `CC(=O)N1CC2(CCN(c3cccc4cnc(NC5CCN(S(C)(=O)=O)CC5)nc34)C2)C1` [Example 5, 1-(6-(2-((1-(methylsulfonyl)piperidin-4-yl)amino)quinazolin-8-yl)-2,6-diazaspiro[3.4]octan-2-yl)ethan-1-one] were greater than 2000 nM, 200 to 500 nM, 500 to 2000 nM and 500 to 2000 nM.
For `CN1CCN(C2CCN(c3cccc4cnc(NC5CCN(S(C)(=O)=O)CC5)nc34)C2)CC1` (centres unmarked) [Example 29, 8-(3-(4-methylpiperazin-1-yl)pyrrolidin-1-yl)-N-(1-(methylsulfonyl)piperidin-4-yl)quinazolin-2-amine] the same measures were greater than 2000 nM, 200 to 500 nM, 500 to 2000 nM and greater than 2000 nM.
Taken in the same sequence, the figures for `CS(=O)(=O)N1CCC(Nc2ncc3cccc(N4CCC5(CCC(F)(F)CC5)C4)c3n2)CC1` [Example 28, 8-(8,8-difluoro-2-azaspiro[4.5]decan-2-yl)-N-(1-(methylsulfonyl)piperidin-4-yl)quinazolin-2-amine] were greater than 2000 nM, less than 200 nM, less than 200 nM and less than 200 nM.
